Counter-ions that a name gives are not always drawn. Like-named read-outs stand apart in the source and are kept apart here.
Tests used:
Type in all cases: cell-based, human
UOK257-FLCN^− cells = assay: SRB growth inhibition assay in UOK257-FLCN^− cells; conditions: for GI50: SRB assay, 72 hours continuous exposure, mean ± SE (n), read-out: GI50 nM in UOK-FLCN^−; for GI50 Ratio of UOK-FLCN^+/UOK-FLCN^−: ratio>1 = more inhibitory to FLCN^− cells; for fold difference in the GI50 values between FLCN-null and FLCN-wild type UOK257 cells: GI50 higher in FLCN-wild type cells (FLCN-null more sensitive)
Text: (§1) Human renal carcinoma of BHD origin cells UOK-257 (UOK-FLCN^−) and FLCN transfected UOK-257 cells UOK-FLCN^+ (Yang et al Cancer Genet Cytogenet. 2008 Jan. 15; 180(2):100-9) were provided by Dr Marston Linehan and Dr. Laura S Schmidt (Urologic Oncology Branch, Centre for Cancer Research, National Cancer Institute, National Institutes of Health, Bethesda, Md. 20892, USA). UOK-257 is the only RCC cell line that has been derived from a patient with BHD and harbours a germline FLCN frameshift mutation (c.1285dupC) (predicted, in the absence of nonsense mediated mRNA decay, to lead to premature protein truncation (p.His429ProfsX27) (Yang et al., Cancer Genet Cytogenet, 2008 Jan. 15; 180(2):100-9). We are not aware of any sporadic RCC cell lines with homozygous FLCN inactivation. FTC-133 cells were purchased from ECACC (Salisbury, United Kingdom). These cells are a non-RCC cell line derived from human thyroid carcinoma. 786-0 cells were available from the author's lab (Clifford et al., Hum Mol Genet. 2001 May 1; 10(10):1029-38). 786-O is a kidney cancer cell line that harbours an inactivating VHL gene mutation (c.311delG p.G104fs*55). All cell lines were cultured in DMEM with supplement of 10% foetal bovine serum except for FTC-133 cells which were incubated in medium with DMEM and Hens (1:1).
(§2) The sensitivity of the cell lines to drug-induced cell growth inhibition was determined using the sulphorhodamine B assay (SRB) as described by Lu et al., Clin Cancer Res. 2001:7:2114-23. Briefly, adherent exponentially growing cells were seeded into 96-well plates at 3-5×10^3 cells/100 μl/well. […] The absorbance per well was measured at 570 nm on a Victor X3 Multilabel Plate Reader (PerkinElmor, Beaconsfield, United Kingdom).
GI50 values, defined as the concentration of compounds required to inhibit growth by 50%, were then calculated. The ratio of GI50 value from UOK257-FLCN^+ and UOK257-FLCN^− were calculated and used as an indicator for the sensitivity to FLCN mutant cells.

UOK257-FLCN^+ cells = assay: SRB growth inhibition assay in UOK257-FLCN^+ cells; conditions: 72 hours continuous exposure, mean ± SE (n), read-out: GI50 nM in UOK-FLCN^+
Text: as §1
(§3) The sensitivity of the cell lines to drug-induced cell growth inhibition was determined using the sulphorhodamine B assay (SRB) as described by Lu et al., Clin Cancer Res. 2001:7:2114-23. Briefly, adherent exponentially growing cells were seeded into 96-well plates at 3-5×10^3 cells/100 μl/well. After 20-24 h at 37° C., drugs were added at the appropriate drug concentrations to the wells (final DMSO conc. 1%) as indicated in the Results section. […] The absorbance per well was measured at 570 nm on a Victor X3 Multilabel Plate Reader (PerkinElmor, Beaconsfield, United Kingdom).
UOK-257 is the only RCC cell line that has been derived from a patient with BHD and harbours a germline FLCN frameshift mutation (c.1285dupC) (predicted, in the absence of nonsense mediated mRNA decay, to lead to premature protein truncation (p.His429ProfsX27) (Yang et al Cancer Genet Cytogenet, 2008 Jan. 15; 180(2):100-9). Both UOK257-FLCN^− and UOK257-FLCN^+ cells were examined for their sensitivities to growth inhibition induced by 15 compounds selected from the COMPARE analysis. Various concentrations of compounds were introduced into the cells 24 hrs after seeding, incubation was continued for 72 hours and growth inhibition was assessed using the suiphorhodamine B (SRB) assay. GI50 values, defined as the concentration of compounds required to inhibit growth by 50%, were then calculated. The ratio of GI50 value from UOK257-FLCN^+ and UOK257-FLCN^− were calculated and used as an indicator for the sensitivity to FLCN mutant cells.

[1] = test system: 786-O cells with mutant VHL; assay: SRB growth inhibition in 786-O cells with mutant VHL; conditions: SRB assay, 72 hours
Text: as §1, §3
Cells were exposed continuously to various concentrations of drugs for 72 hours. GI50 values were determined as the concentrations at 50% growth inhibition from at least three experiments.

[2] = test system: FTC-133 cells transfected with empty vector; assay: SRB growth inhibition in FTC-133 cells, empty vector; conditions: SRB assay
Text: as §1, §2
(§4) A FLCN containing construct was introduced into parental FTC-133 cells and stably transfected cells were selected. SRB growth inhibition assay was carried out in cells transfected with empty vector and low FLCN and high FLCN expression.
as §4

[3] = test system: caspase3/7 activity in UOK257-FLCN^− and UOK257-FLCN^+ cells; assay: Caspase-Glo 3/7 assay in UOK-257 cells with/without FLCN expression; conditions: 48 hrs, all three concentrations
Experimental: The ability to induce caspase 3/7 activation after exposure to compounds was measured by Caspase-Glo 3/7 Assay (Promega, Southampton, United Kingdom) according to manufacturer's instruction. The cells were seeded and dosed as described in growth inhibition assay. At the end of incubation, 70 μl of medium was removed and 30 μl of assay reagent was added to the remaining medium. Additional one hour incubation with shaking was carried out at room temperature. The resultant luminescent light was measured in a Victor X3 Multilabel Plate Reader (PerkinElmer, Beaconsfield, United Kingdom). Cell viability after compound exposure was determined by CellTiter-Blue Cell Viability Assay (Promega, Southampton, the United Kingdom) according to manufacturer's instruction. At the end of drug treatment, 20 μl of reagent was added to the medium in 96 wells and the cells were incubated for additional 4 hours. The cell viability was measured by fluorescence with a 570 nm excitation and 590 nm emission set in a Victor X3 Multilabel Plate Reader (PerkinElmer, Beaconsfield, United Kingdom).
After 48 hrs incubation, with three concentration ranges for each drug, the capase3/7 activity was detected by amount of luminescence for each cell line. The ratio of caspase3/7 activity from UOK257-FLCN^− and UOK257-FLCN^+ were calculated and used as indicators for the ability of the individual compound to induce caspase3/7 activity to FLCN mutant cells.
These ratios were calculated and used as indicators for the sensitivity to mutant FLCN cells.

COc1cccc2c1C(=O)c1c(O)c3c(c(O)c1C2=O)C[C@@](O)(C(C)=O)C[C@@H]3O[C@H]1C[C@H](N(Cc2ccccc2)Cc2ccccc2)[C@@H](O)[C@H](C)O1 [N,N-dibenzyldaunomycin]
GI50 (UOK257-FLCN^− cells): 5740 ± 918 nM
GI50 Ratio of UOK-FLCN^+/UOK-FLCN^− (UOK257-FLCN^− cells): 0.22
GI50 (UOK257-FLCN^+ cells): 1270 ± 549 nM

COc1cc([C@@H]2c3cc4c(cc3[C@@H](O[C@@H]3O[C@@H]5CO[C@@H](c6cccs6)O[C@H]5[C@H](O)[C@H]3O)[C@H]3COC(=O)[C@H]23)OCO4)cc(OC)c1O [VM-26 (teniposide), teniposide]
GI50 (UOK257-FLCN^− cells; Homo sapiens): 773 ± 162 nM
GI50 Ratio of UOK-FLCN^+/UOK-FLCN^− (UOK257-FLCN^− cells): 1.10
GI50 (UOK257-FLCN^+ cells; Homo sapiens): 849 ± 358 nM

C(=N\NC1=NCCN1)/c1c2ccccc2c(/C=N/NC2=NCCN2)c2ccccc12 [bisantrene hydrochloride]
GI50 (UOK257-FLCN^− cells; Homo sapiens): 1750 ± 288 nM
GI50 Ratio of UOK-FLCN^+/UOK-FLCN^− (UOK257-FLCN^− cells): 0.77
GI50 (UOK257-FLCN^+ cells; Homo sapiens): 1340 ± 602 nM

COc1cccc2c1C(=O)c1c(O)c3c(c(O)c1C2=O)C[C@@](O)(C(=O)CO)C[C@@H]3O[C@H]1C[C@H](N2CCOCC2C#N)[C@H](O)[C@H](C)O1 (stereo partly shown) [cyanomorpholino-ADR]
fold difference in the GI50 values between UOK257-FLCN^+ and UOK257-FLCN^− cells (UOK257-FLCN^− cells; GI50 higher in FLCN^− cells (FLCN^− less sensitive)): 6 fold
GI50 (UOK257-FLCN^− cells): 3.79 ± 0.39 nM
GI50 Ratio of UOK-FLCN^+/UOK-FLCN^− (UOK257-FLCN^− cells): 0.16
GI50 (UOK257-FLCN^+ cells): 0.62 ± 0.16 nM

CC[C@H](C)[C@H]1NC(=O)[C@@H](NC(=O)[C@@H](CC(C)C)N(C)C(=O)[C@@H]2CCCN2C(=O)C(C)O)[C@@H](C)OC(=O)[C@H](Cc2ccc(OC)cc2)N(C)C(=O)[C@@H]2CCCN2C(=O)[C@H](CC(C)C)NC(=O)[C@@H](C)C(=O)[C@H](C(C)C)OC(=O)C[C@@H]1O (stereo partly shown) [didemnin B]
GI50 (UOK257-FLCN^− cells): 7.94 ± 1.66 nM
GI50 Ratio of UOK-FLCN^+/UOK-FLCN^− (UOK257-FLCN^− cells): 0.82
GI50 (UOK257-FLCN^+ cells): 6.53 ± 1.78 nM

COc1cccc2c1C(=O)c1c(O)c3c(c(O)c1C2=O)C[C@@](O)(C(=O)CO)C[C@@H]3O[C@H]1C[C@H](N)[C@H](O)[C@H](C)O1 [doxorubicin (adriamycin), doxorubicin]
GI50 (UOK257-FLCN^− cells; Homo sapiens): 423 ± 54 nM
GI50 Ratio of UOK-FLCN^+/UOK-FLCN^− (UOK257-FLCN^− cells): 1.37
GI50 (UOK257-FLCN^+ cells; Homo sapiens): 581 ± 109 nM

CS[C@H]1SC[C@H]2C(=O)N(C)[C@@H](C(C)C)C(=O)OC[C@@H](NC(=O)c3cnc4ccccc4n3)C(=O)N[C@@H](C)C(=O)N(C)[C@@H]1C(=O)N(C)[C@@H](C(C)C)C(=O)OC[C@@H](NC(=O)c1cnc3ccccc3n1)C(=O)N[C@@H](C)C(=O)N2C [echinomycin]
GI50 (UOK257-FLCN^− cells; Homo sapiens): 5.72 ± 0.22 nM
GI50 Ratio of UOK-FLCN^+/UOK-FLCN^− (UOK257-FLCN^− cells): 0.71
GI50 (UOK257-FLCN^+ cells; Homo sapiens): 4.03 ± 0.89 nM

CO[C@@H]1C[C@](C)(O)Cc2cc3c(c(O)c21)C(=O)c1c(O)cc2c(c1C3=O)O[C@@H]1O[C@@]2(C)[C@H](O)[C@@H](N(C)C)[C@@H]1O [menogaril]
GI50 (UOK257-FLCN^− cells; Homo sapiens): 588 ± 57 nM
GI50 Ratio of UOK-FLCN^+/UOK-FLCN^− (UOK257-FLCN^− cells): 1.29
GI50 (UOK257-FLCN^+ cells; Homo sapiens): 757 ± 117 nM

COc1cccc2c1C(=O)c1c(O)c3c(c(O)c1C2=O)C[C@@](O)(C(=O)CO)C[C@@H]3O[C@H]1C[C@H](N2CCOCC2)[C@H](O)[C@H](C)O1 [morpholino-ADR, Morpholino-ADR]
GI50 (UOK257-FLCN^− cells): 0.45 ± 0.03 nM
GI50 Ratio of UOK-FLCN^+/UOK-FLCN^− (UOK257-FLCN^− cells): 0.97
GI50 (UOK257-FLCN^+ cells): 0.44 ± 0.1 nM

CC(=O)O[C@H]1C(=O)[C@@]2(C)[C@H]([C@H](OC(=O)c3ccccc3)[C@]3(O)C[C@H](OC(=O)[C@H](O)[C@@H](NC(=O)c4ccccc4)c4ccccc4)C(C)=C1C3(C)C)[C@]1(OC(C)=O)CO[C@@H]1C[C@@H]2O [paclitaxel (taxol), paclitaxel]
fold difference in the GI50 values between FLCN-null and FLCN-wild type UOK257 cells (UOK257-FLCN^− cells): ~7 fold
GI50 (UOK257-FLCN^− cells; Homo sapiens): 75.5 ± 9.2 nM
GI50 Ratio of UOK-FLCN^+/UOK-FLCN^− (UOK257-FLCN^− cells): 6.81
GI50 (UOK257-FLCN^+ cells; Homo sapiens): 514 ± 86 nM

CC(=O)O[C@@H]1[C@@H](O)[C@H](O[C@H]2[C@H](OC(=O)[C@H]3CC[C@@H]4[C@H](C3)O[C@@]3(C[C@H](OC(=O)/C=C/c5ccccc5)[C@H](C)CO3)[C@]43CO3)O[C@H](C)[C@@H](O)[C@@H]2OC(C)=O)O[C@H](C)[C@H]1O [phyllanthoside]
fold difference in the GI50 values between FLCN-null and FLCN-wild type UOK257 cells (UOK257-FLCN^− cells): ~2 fold
GI50 (UOK257-FLCN^− cells; Homo sapiens): 199 ± 79 nM
GI50 Ratio of UOK-FLCN^+/UOK-FLCN^− (UOK257-FLCN^− cells): 2.15
GI50 (UOK257-FLCN^+ cells; Homo sapiens, 72 h): 427 ± 97 nM

CC[C@]1(O)C[C@H]2CN(CCc3c([nH]c4ccccc34)[C@@](C(=O)OC)(c3cc4c(cc3OC)N(C=O)[C@H]3[C@@](O)(C(=O)OC)[C@H](OC(C)=O)[C@]5(CC)C=CCN6CC[C@]43[C@@H]65)C2)C1 [vincristine sulphate, vincristine sulfate]
fold difference in the GI50 values between FLCN-null and FLCN-wild type UOK257 cells (UOK257-FLCN^− cells): ~2 fold
GI50 (UOK257-FLCN^− cells; Homo sapiens): 30.1 ± 10.3 nM
GI50 Ratio of UOK-FLCN^+/UOK-FLCN^− (UOK257-FLCN^− cells): 1.88
GI50 (UOK257-FLCN^+ cells; Homo sapiens): 56.4 ± 17.5 nM
change in growth inhibition for 786-0 cells with/without VHL expression (in words) [1]: no significant change
differential sensitivity in FTC-133 cells with different levels of FLCN expression (in words) [2]: no selective vincristine sensitivity

bruceantin
GI50 (UOK257-FLCN^− cells): 68.4 ± 14.9 nM
GI50 Ratio of UOK-FLCN^+/UOK-FLCN^− (UOK257-FLCN^− cells): 0.64
GI50 (UOK257-FLCN^+ cells): 43.6 ± 5.1 nM
ratio of caspase3/7 activity from UOK257-FLCN^− and UOK257-FLCN^+ [3]: < 1

Reference: patent US20130150317A1, “COMPOUNDS FOR THE TREATMENT OF RENAL CELL CARCINOMA” (Myrovlytis Technology Ventures Limited, priority 2010, published 2013)
